Earlier results on one compound are cited in US20220409620A1, “REDUCING IMMUNOGENICITY TO PEGLOTICASE” (Horizon Pharma Rheumatology LLC, priority 2016, published 2022).

The test system of this data set is patients. The settings on record: patients treated with allopurinol; cited from earlier work.

For the compound `Oc1ncnc2[nH]ncc12` [allopurinol], the “patients developing allergic reactions” value is “Approximately 2%” and the severe hypersensitivity syndrome entry is “about 0.4%”.
